One compound from ChEMBL document CHEMBL2169787, “The biology and chemistry of antifungal agents: a review” (2012) can be followed below.

The subject of one test is Candida albicans. The test can be described thus: Antifungal activity against Candida albicans relative to fluconazole. Format: functional.
For another test, the system named is Aspergillus fumigatus. The test can be described thus: Antifungal activity against Aspergillus fumigatus relative to fluconazole. In kind it is functional.

In the case of `CCCCCCCCCC1C=C(CCC2C(OC)OC3COC(c4ccccc4)OC3C2CCC2CN(CCCCCCCCC)N=N2)N=N1` (configuration not stated), the “fold change (FC)” value with Candida albicans and with Aspergillus fumigatus was 14 each time.
